In patent publication US20050197350A1, “Novel quinoline, tetrahydroquinazoline, and pyrimidine derivatives and methods of treatment related to the use thereof” (TAISHO PHARMACEUTICAL CO., LTD., priority 2003, published 2005):

The compounds below were run on MCH receptors (assay: MCH receptor activity class (method not given)). Settings: not given.
COc1cc(CNC(=O)[C@H]2CC[C@@H](Nc3nc(C)cc(N(C)C)n3)CC2)cc(OC)c1 [Example 2576, cis-N-(3,5-dimethoxybenzyl)-4-{[4-(dimethylamino)-6-methylpyrimidin-2-yl]amino}cyclohexanecarboxamide] gave a class of 1.

Same assay, conditions: MCH receptor activity class 1-3 (percent of control at 10^-7 M or IC50)
For Cc1cccc(C(C)(C)C)c1NC(=O)NC[C@H]1CC[C@@H](Nc2cc(N(C)C)c3ccccc3n2)CC1 [compound 2383, N-(2-tert-butyl-6-methylphenyl)-N′-[(cis-4-{[4-(dimethylamino)quinolin-2-yl]amino}cyclohexyl)methyl]urea], the class was 1 (Class 1: The value of percent of control at 10^−7 M was less than 40% or the value of IC50 was less than 50 nM.).
In the case of CN(C)c1ccnc(N[C@H]2CC[C@@H](CNC(=O)Nc3ccc(F)cc3F)CC2)n1 [compound 2407, N-(2,4-difluorophenyl)-N′-[(cis-4-{[4-(dimethylamino)pyrimidin-2-yl]amino}cyclohexyl)methyl]urea], the class is reported as 2 (Class 2: The value of percent of control at 10^−7 M was from 40% to 60% or the value of IC′50 was from 50 nM to 200 nM.).

Same assay, conditions: MCH receptor; class by percent of control at 10^-7 M or IC50
CN(C)c1cc(N[C@H]2CC[C@@H](NC(=O)COc3c(F)c(F)c(F)c(F)c3F)CC2)nc2ccccc12 [compound 122] was tested, and the class was 3 (Class 3 The value of percent of control at 10^−7 M was more than 60% or the value of IC50 was more than 200 nM.).
For CN(C)c1nc(N[C@H]2CC[C@@H](NC(=S)Nc3cccc(Cl)c3Cl)CC2)nc2c1CCCC2 [compound 1971], the class was 3 (Class 3 The value of percent of control at 10^−7 M was more than 60% or the value of IC50 was more than 200 nM.).
With Cc1cc(C(=O)N[C@H]2CC[C@@H](Nc3cc(N(C)C)c4ccccc4n3)CC2)nn1C(C)(C)C [compound 90] the class was 3 (Class 3 The value of percent of control at 10^−7 M was more than 60% or the value of IC50 was more than 200 nM.).
With CN(C)c1cc(N[C@H]2CC[C@@H](NC(=O)c3ccc(SC(F)(F)F)cc3)CC2)nc2ccccc12 [compound 131] the class was 3 (Class 3 The value of percent of control at 10^−7 M was more than 60% or the value of IC50 was more than 200 nM.).

Same assay, conditions: activity class 1-3: percent of control at 10^-7 M or IC50
CN(C)c1ccnc(N[C@H]2CC[C@@H](NC(=O)OCc3ccccc3Cl)CC2)n1 [compound 1636] was tested, and the class was 3 (Class 3 The value of percent of control at 10^−7 M was more than 60% or the value of IC50 was more than 200 nM.).
In the case of CN(C)c1nc(N[C@H]2CC[C@@H](NC(=O)OCCOCc3ccccc3)CC2)nc2c1CCCC2 [compound 1579], the class is reported as 3 (Class 3 The value of percent of control at 10^−7 M was more than 60% or the value of IC50 was more than 200 nM.).

Same assay, conditions: activity class per percent of control at 10^-7 M or IC50
For CN(C)c1cc(N[C@H]2CC[C@@H](CNCc3ccc(O)cc3)CC2)nc2ccccc12 [compound 1154], the class was 3 (Class 3 The value of percent of control at 10^−7 M was more than 60% or the value of IC50 was more than 200 nM.).
Cc1cc(C)c(C(=O)C(=O)N[C@H]2CC[C@@H](Nc3nc4c(c(N(C)C)n3)CCCC4)CC2)c(C)c1 [compound 1051] was tested, and the class was 3 (Class 3 The value of percent of control at 10^−7 M was more than 60% or the value of IC50 was more than 200 nM.).
With CN(C)c1nc(N[C@H]2CC[C@@H](NC(=O)Cc3c(-c4ccccc4)[nH]c4ccccc34)CC2)nc2c1CCCC2 [compound 1005] the class was 1 (Class 1: The value of percent of control at 10^−7 M was less than 40% or the value of IC50 was less than 50 nM.).

Same assay, conditions: class 1-3 by percent of control at 10^-7 M or IC50
With CN(C)c1nc(N[C@H]2CC[C@@H](NC(=O)c3cc(F)cc(F)c3)CC2)nc2c1CCCC2 [compound 470] the class was 1 (Class 1: The value of percent of control at 10^−7 M was less than 40% or the value of IC50 was less than 50 nM.).
In the case of CN(C)c1nc(N[C@H]2CC[C@@H](CNC(=O)C(c3ccccc3)c3ccccc3)CC2)nc2c1CCCC2 [compound 594], the class is reported as 3 (Class 3 The value of percent of control at 10^−7 M was more than 60% or the value of IC50 was more than 200 nM.).

Same assay, conditions: class by percent of control at 10^-7 M or IC50
For CN(C)c1ccnc(N[C@H]2CC[C@@H](NC(=O)COc3cccc(Cl)c3)CC2)n1 [compound 351, 2-(3-chlorophenoxy)-N-(cis-4-{[4-(dimethylamino)pyrimidin-2-yl]amino}cyclohexyl)acetamide], the class was 1 (Class 1: The value of percent of control at 10^−7 M was less than 40% or the value of IC50 was less than 50 nM.).
With Cc1cc(Cl)ccc1NC(=O)N[C@H]1CC[C@@H](Nc2cc(N(C)C)c3ccccc3n2)CC1 [compound 2154] the class was 3 (Class 3 The value of percent of control at 10^−7 M was more than 60% or the value of IC50 was more than 200 nM.).
For CCOc1ccccc1NC(=O)N[C@H]1CC[C@@H](Nc2nccc(N(C)C)n2)CC1 [compound 2232], the class was 3 (Class 3 The value of percent of control at 10^−7 M was more than 60% or the value of IC50 was more than 200 nM.).
For Cc1noc(-c2ccccc2)c1NC(=O)N[C@H]1CC[C@@H](Nc2nccc(N(C)C)n2)CC1 [compound 2211], the class was 3 (Class 3 The value of percent of control at 10^−7 M was more than 60% or the value of IC50 was more than 200 nM.).
In the case of CN(C)c1cc(N[C@H]2CC[C@@H](CNC(=O)c3ccccc3I)CC2)nc2ccccc12 [compound 222], the class is reported as 3 (Class 3 The value of percent of control at 10^−7 M was more than 60% or the value of IC50 was more than 200 nM.).
In the case of COc1ccc(CNC[C@H]2CC[C@@H](Nc3nc4c(c(N(C)C)n3)CCCC4)CC2)cc1OC [compound 1435], the class is reported as 3 (Class 3 The value of percent of control at 10^−7 M was more than 60% or the value of IC50 was more than 200 nM.).
With CN(C)c1ccnc(N[C@H]2CC[C@@H](CNCc3cn(C)c4ccccc34)CC2)n1 [compound 1300] the class was 2 (Class 2: The value of percent of control at 10^−7 M was from 40% to 60% or the value of IC′50 was from 50 nM to 200 nM.).

Same assay, conditions: class by percent of control at 10^−7 M or IC50
With Cc1cnc(N[C@H]2CC[C@@H](CNC(=O)c3cccnc3Oc3ccc(F)c(Cl)c3)C2)nc1N(C)C [compound 3019] the class was 2 (Class 2: The value of percent of control at 10^−7 M was from 40% to 60% or the value of IC′50 was from 50 nM to 200 nM.).
In the case of Cc1nc(N[C@H]2CC[C@@H](NC(=O)Nc3ccc(OCc4ccccc4)cc3)CC2)nc(N(C)C)c1C [compound 2869], the class is reported as 3 (Class 3 The value of percent of control at 10^−7 M was more than 60% or the value of IC50 was more than 200 nM.).
With CCOc1ccc(C(=O)N[C@H]2CC[C@@H](Nc3nc(C)cc(N(C)C)n3)CC2)cc1 [compound 2971] the class was 3 (Class 3 The value of percent of control at 10^−7 M was more than 60% or the value of IC50 was more than 200 nM.).
For COc1ccccc1Oc1ncccc1C(=O)NC[C@@H]1CC[C@H](Nc2ncc(C)c(N(C)C)n2)C1 [compound 3013], the class was 1 (Class 1: The value of percent of control at 10^−7 M was less than 40% or the value of IC50 was less than 50 nM.).
Cc1cc(N(C)C)nc(N[C@H]2CC[C@@H](NC(=O)c3ccc(C#N)cc3)CC2)n1 [compound 2958, 4-cyano-N-(cis-4-{[4-(dimethylamino)-6-methylpyrimidin-2-yl]amino}cyclohexyl)benzamide] was tested, and the class was 1 (Class 1: The value of percent of control at 10^−7 M was less than 40% or the value of IC50 was less than 50 nM.).
Cc1cnc(N[C@H]2CC[C@@H](C(=O)N[C@H](C)c3cccc4ccccc34)CC2)nc1N(C)C [compound 2782, cis-4-{[4-(dimethylamino)-5-methylpyrimidin-2-yl]amino}-N-[(1R)-1-(1-naphthyl)ethyl]cyclohexanecarboxamide] was tested, and the class was 1 (Class 1: The value of percent of control at 10^−7 M was less than 40% or the value of IC50 was less than 50 nM.).
With Cc1cnc(N[C@H]2CC[C@@H](NC(=O)C3(c4ccc(Cl)cc4)CC3)CC2)nc1N(C)C [compound 2870] the class was 1 (Class 1: The value of percent of control at 10^−7 M was less than 40% or the value of IC50 was less than 50 nM.).
